From patent US6844366B2, “Sulfonamide hydroxamates” (Syntex (U.S.A.) LLC, priority 1998, dated 2005)

Row | Compound | melting point [°C]
1 | COc1cc(C)c(S(=O)(=O)N(Cc2ccc3[nH]ccc3c2)[C@@H](C(=O)NO)C(C)C)cc1C [Compound 145, N-hydroxy-2(R)-2-[(1H-indol-5-ylmethyl)-(4-methoxy-2,5-dimethylbenzenesulfonyl)-amino]-3-methylbutyramide] | 117 to 121
2 | COc1cc(C)c(S(=O)(=O)N(Cc2ccc3[nH]cc(C(C)=O)c3c2)[C@@H](C(=O)NO)C(C)C)c(C)c1C [Compound 126, N-hydroxy-2(R)-[(1H-3-acetyl-indol-5-ylmethyl)-(4-methoxy-2,3,6-trimethylbenzenesulfonyl)amino]-3-methylbutyramide] | 163 to 171
3 | COC(=O)c1ccc(C(=O)NC[C@H](C(=O)NO)N(Cc2ccc3c(c2)OCO3)S(=O)(=O)c2c(C)cc(OC)cc2C)cc1 [Compound 133, N-hydroxy-2(R)-[(3,4-methylendioxybenzyl)-(2,6-dimethyl-4-methoxybenzenesulfonyl)amino]-3-(4-methoxycarbonyl-benzoyl)amino-propionamide] | 119 to 124
4 | COc1cc(C)c(S(=O)(=O)N(Cc2ccc3c(c2)OCO3)[C@H](CNS(C)(=O)=O)C(=O)NO)c(C)c1 [Compound 128, N-hydroxy-2(R)-[(3,4-methylendioxybenzyl)-(2,6-dimethyl-4-methoxybenzenesulfonyl)amino]-3-(methanesulfonyl)amino-propionamide] | 98 to 102

Further lines, results first:

Row | melting point [°C] | Compound
5 | 95 to 105 | COc1cc(C)c(S(=O)(=O)N(Cc2ccc3c(c2)OCO3)[C@@H](C(=O)NO)[C@H](C)O)c(C)c1C [Compound 87, N-hydroxy-2(R)-[(3,4-methylenedioxybenzyl)-(4-methoxy-2,3,6-trimethylbenzenesulfonyl)amino]-3(S)-hydroxybutyramide]
6 | 103 to 107 | COc1cc(C)c(S(=O)(=O)N(Cc2ccc3c(c2)OCO3)[C@H](CNS(=O)(=O)c2ccccc2)C(=O)NO)c(C)c1 [Compound 129, N-hydroxy-2(R)-[(3,4-methylendioxybenzyl)-(2,6-dimethyl-4-methoxybenzenesulfonyl)amino]-3-benzenesulfonylamino-propionamide]
7 | 164 to 165 | COC(=O)c1ccc(CN([C@@H](C(=O)NO)C(C)C)S(=O)(=O)c2ccc(OC)cc2)cc1 [Compound 21, N-Hydroxy-2(R)-[(4-methoxycarbonylbenzyl)-(4-methoxybenzenesulfonyl)amino]-3-methylbutyramide]
